These results are taken from EPA's ToxValDB 9.5 (doi:10.2903/j.efsa.2010.1872).

Series [1] has as its system Anas platyrhynchos. The note with it: oral, mortality.
Series [2] deals with Apis mellifera. The note with it: acute; oral; unspecified; mortality.
For series [3], the system named is Bibionidae. The note with it: chronic/long-term; duration: 28 days; development.
In series [4] the test system is Colinus virginianus.
The subject of series [5] is Daphnia magna. The note with it: chronic/long-term; duration: 21 days.
The subject of series [6] is Folsomia candida. As to conditions: chronic/long-term; duration: 28 days; mortality.
The test system of series [7] is Pimephales promelas.
Series [8] has as its system Rattus norvegicus.
Series [9] deals with Tagia sp. The note with it: acute, duration: 14 days.
Series [10] deals with Typhlodromus pyri. The note with it: chronic/long-term; mortality.
Series [11] concerns Typhlodromus pyri. As to the kind of experiment: LR50; higher = less toxic. The note with it: not reported; mortality.
Where [12] appears, read: reproduction developmental, reproduction.

Each structure is given as a SMILES string. In brackets after ≈: the same amount, converted by molar mass. Where only a bound is given, the exact number is not on record here.

With `CC1(C)[C@H](C(=O)O[C@H](C#N)c2cccc(Oc3ccccc3)c2)[C@@H]1/C=C\C(=O)OC(C(F)(F)F)C(F)(F)F` [Acrinathrin], the LD50 in [1] (acute, unspecified) was > 2000 mg/kg-day; in series [2], 0.077 µg/piece; in series [4] (acute, oral, mortality), > 2250 mg/kg-day; in series [8] (acute, oral, mortality), > 5000 mg/kg-day. The NOEC was 173 mg/kg-day in series [1] (short-term, feed); 3.1e-05 mg/L in series [3]; 19.9 mg/kg-day in series [4] (setting [12]); 325 mg/kg-day in [4] (short-term, oral, diet, mortality); 3.2e-06 mg/L in series [5]; < 1 mg/kg in series [6]. The NOEC in series [7] (chronic/long-term, duration: 21 days) was determined as 1.1e-05 mg/L; in series [9], 1.6 mg/kg; in [10], 0.00068 g/ha. In addition, the LC50 in [7] (acute, duration: 96 hours, mortality) is 1.7 ng/mL (≈ 3.14 nM); in series [9] (mortality), > 1000 mg/kg. In addition, the NOAEL in [8] (acute, neurology) was 1 mg/kg-day; in [8] (setting [12]), 9.4 mg/kg-day. For the same compound, the NOEL in series [8] (setting [12]) turned out to be 2.5 mg/kg-day. This compound came in with an LR50 in [11] of 0.006 g/ha.
